Each structure is given as a SMILES string.

In assay [1] the target is T1, Cbl-b (Homo sapiens, UniProt Q13191). As to the kind of experiment: Cbl-b inhibition assay (Cbl-b activity assay, FRET, Biological Example 1; 100 mM NaCl, 60 nM Src kinase). Type of assay: biochemical. As to conditions: upper bound stated in text lists; read-out: IC50 values in the Cbl-b inhibition assay of Biological Example 1. The method in brief:
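Here, the E2 UbcH5B, irreversibly linked to Bodipy-fluorescein ubiquitin, binds Cbl-b once Src kinase phosphorylates it; Cbl-b carries an N-terminal biotinylated Avi-tag captured by streptavidin-terbium. An absent FRET signal indicates inhibition.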

For assay [2], the system named is T-cell. In words: IL-2 secretion from T-cells co-stimulated with anti-CD3 and anti-CD28 antibody (Biological Example 2). Type of assay: cell-based, human. As to conditions: Homo sapiens, T-cell, primary human total T-cells, baseline = anti-CD3/anti-CD28 stimulated cells without inhibitor, read-out: IL-2 secretion, Anti-CD3/Anti-CD28 stimulation, fold change over baseline; for fold induction at 0.3 µM: 0.3 μM compound; for fold induction at 1 µM: 1 μM compound; for fold induction at 4 µM: 4 μM compound. The method in brief:
(§1)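 T-cells were stimulated with anti-CD3 antibody alone or with anti-CD28 antibody, in the presence or absence of Cbl-b inhibitor. IL-2 secretion or CD25 surface staining was measured, and values expressed as fold over the uninhibited baseline […].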

Assay [3] concerns T-cell. As to the kind of experiment: CD25 cell surface staining on T-cells co-stimulated with anti-CD3 and anti-CD28 antibody (Biological Example 2). The assay is classed as cell-based, human. As to conditions: Homo sapiens, T-cell, primary human total T-cells, baseline = anti-CD3/anti-CD28 stimulated cells without inhibitor, read-out: CD25 staining, Anti-CD3/Anti-CD28 stimulation, fold change over baseline; for fold induction at 0.3 µM: 0.3 μM compound; for fold induction at 1 µM: 1 μM compound; for fold induction at 4 µM: 4 μM compound. The method in brief:
as §1

For assay [4], the target named is T1, Cbl-b. In words: Cbl-b activity assay (Cbl-b inhibition assay), TR-FRET of Cbl-b interaction with UbcH5B-Ub. Type of assay: biochemical. As to conditions: assay buffer with 100 mM NaCl, 60 nM Src kinase; read-out: Cbl-b activity IC50. The method in brief: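 UbcH5B (C85K) conjugated to N-terminally Bodipy-Fluorescein-labeled ubiquitin served as the fluorescent partner. After compound preincubation, Src kinase (60 nM) with 1 mM ATP and 5 mM MgCl2 (final) was added for 1.5 h, followed by a further 1 h incubation. Some values were obtained with 50 mM NaCl and 30 nM Src.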
Background: In TR-FRET formats the signal depends on donor and acceptor labels being close together.

The subject of assay [5] is T-cell. As to the kind of experiment: IL-2 secretion from T-cells stimulated with anti-CD3 antibody alone (Biological Example 2). The assay is classed as cell-based. As to conditions: primary human total T-cells, read-out: IL-2 secretion, Anti-CD3 stimulation, fold change over baseline; for fold induction at 1 µM: 1 μM compound; for fold induction at 8 µM: 8 μM compound.

Assay [6] relates to T-cell. As to the kind of experiment: CD25 cell surface staining on T-cells stimulated with anti-CD3 antibody alone (Biological Example 2). Type of assay: cell-based. As to conditions: primary human total T-cells, baseline = anti-CD3/anti-CD28 stimulated cells without inhibitor, read-out: CD25 staining, Anti-CD3 stimulation, fold change over baseline; for fold induction at 1 µM: 1 μM compound; for fold induction at 8 µM: 8 μM compound.

T1 sequence (Q13191 36-427): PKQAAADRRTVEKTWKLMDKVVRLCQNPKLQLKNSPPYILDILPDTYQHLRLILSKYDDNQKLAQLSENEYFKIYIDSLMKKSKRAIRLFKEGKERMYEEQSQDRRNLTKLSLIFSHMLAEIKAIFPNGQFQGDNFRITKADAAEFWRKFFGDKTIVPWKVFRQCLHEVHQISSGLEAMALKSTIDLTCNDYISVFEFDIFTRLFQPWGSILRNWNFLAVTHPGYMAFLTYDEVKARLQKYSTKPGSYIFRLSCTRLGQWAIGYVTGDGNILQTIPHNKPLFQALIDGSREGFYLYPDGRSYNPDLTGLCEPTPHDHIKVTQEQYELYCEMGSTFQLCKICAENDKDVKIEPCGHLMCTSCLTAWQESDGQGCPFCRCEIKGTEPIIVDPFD

A word on the IC50: it is the concentration that gives 50% inhibition. Regarding `C[C@H](c1cc2c(c(C(F)(F)F)c1)CN(c1cccc(C3([C@@H](F)c4nncn4C)COC3)c1)C2=O)N1CCC2(CC2)C1` (stereo in doubt) [Compound 515, 6-[(1R)-1-{5-azaspiro[2.4]heptan-5-yl}ethyl]-2-(3-{3-[(R)-fluoro(4-methyl-1,2,4-triazol-3-yl)methyl]oxetan-3-yl}phenyl)-4-(trifluoromethyl)-3H-isoindol-1-one], the IC50 is no more than 100 nM on Cbl-b [1] and less than 100 nM at Cbl-b [4]. Moreover, the fold induction at 0.3 µM with T-cell [2] was greater than 7.5; with T-cell [3], greater than 1.76. In addition, the fold induction at 1 µM in the assay with T-cell [2] is greater than 7.5; in the assay on T-cell [3], greater than 1.76; in the assay with T-cell [5], greater than 0.201; with T-cell [6] it was greater than 1.
Regarding `C[C@H](Cc1nncn1C)c1cc(N[C@@H](C)CO)nc(N2Cc3c(cccc3C(F)(F)F)C2=O)c1` [Compound 365, 2-(6-((S)-1-hydroxypropan-2-ylamino)-4-((R)-1-(4-methyl-4H-1,2,4-triazol-3-yl)propan-2-yl)pyridin-2-yl)-4-(trifluoromethyl)isoindolin-1-one], the half-maximal inhibitory concentration (IC50) on Cbl-b [1] was no more than 300 nM; at Cbl-b [4], 100 to 300 nM. Besides, the values for the fold induction at 0.3 µM in the assay with T-cell [2] and with T-cell [3] were 1.01 to 2.5 and 1.01 to 1.3, respectively. The fold induction at 1 µM lay in the range of 1.01 to 2.5 in the assay with T-cell [2], 1.01 to 1.3 in the assay on T-cell [3], 0.051 to 0.1 in the assay with T-cell [5] and 0.601 to 0.8 with T-cell [6]. In addition, the fold induction at 4 µM in the assay on T-cell [2] was in the range of 2.51 to 5; with T-cell [3], 1.01 to 1.3. Moreover, the figures for the fold induction at 8 µM in the assay with T-cell [5] and in the assay with T-cell [6] were 0.151 to 0.2 and greater than 1, respectively.
As to `C[C@H](Cc1nncn1C)c1cccc(N2Cc3c(cc([C@@H]4CCCNC4)cc3C(F)(F)F)C2=O)c1` [Compound 382, 2-(3-((R)-1-(4-methyl-4H-1,2,4-triazol-3-yl)propan-2-yl)phenyl)-6-((S)-piperidin-3-yl)-4-(trifluoromethyl)isoindolin-1-one], the results for the IC50 at Cbl-b [1] and on Cbl-b [4] were no more than 300 nM and 100 to 300 nM, respectively. In addition, the values for the fold induction at 0.3 µM in the assay with T-cell [2] and in the assay with T-cell [3] were 2.51 to 5 and 1.01 to 1.3, respectively. In addition, the fold induction at 1 µM lay within 5 to 7.5 in the assay with T-cell [2], 1.31 to 1.5 with T-cell [3], 0.101 to 0.15 in the assay on T-cell [5] and 0.601 to 0.8 in the assay on T-cell [6]. For the same molecule, the fold induction at 4 µM in the assay on T-cell [2] was in the range of 5 to 7.5; with T-cell [3] it was 1.51 to 1.75. Also, the values for the fold induction at 8 µM with T-cell [5] and with T-cell [6] were greater than 0.201 and greater than 1, respectively.
`CN1CC2CCC1CN2c1cc2c(c(C(F)(F)F)c1)CN(c1cccc(C3(Cc4nncn4C)COC3)c1)C2=O` (stereo not shown) [Compound 387, 2-(3-(3-((4-Methyl-4H-1,2,4-triazol-3-yl)methyl)oxetan-3-yl)phenyl)-6-(5-methyl-2,5-diazabicyclo[2.2.2]octan-2-yl)-4-(trifluoromethyl)isoindolin-1-one]: the IC50 is no more than 100 nM at Cbl-b [1] and less than 100 nM at Cbl-b [4]. For the same molecule, the fold induction at 0.3 µM in the assay on T-cell [2] fell in the range of 2.51 to 5; with T-cell [3], 1.01 to 1.3. For the same molecule, the fold induction at 1 µM in the assay with T-cell [2] was 5 to 7.5; with T-cell [3], 1.31 to 1.5; in the assay with T-cell [5], greater than 0.201; in the assay with T-cell [6] it was 0.801 to 1.
With `C[C@H]1CN(C)CCN1c1cc2c(c(C(F)(F)F)c1)CN(c1cccc(C3(Cc4nncn4C)COC3)c1)C2=O` [Compound 389, (S)-6-(2,4-Dimethylpiperazin-1-yl)-2-(3-(3-((4-methyl-4H-1,2,4-triazol-3-yl)methyl)oxetan-3-yl)phenyl)-4-(trifluoromethyl)isoindolin-1-one], the results for the IC50 at Cbl-b [1] and on Cbl-b [4] were no more than 100 nM and less than 100 nM, respectively. Besides, the fold induction at 0.3 µM in the assay on T-cell [2] lay within 5 to 7.5; in the assay on T-cell [3], 1.01 to 1.3. In addition, the fold induction at 1 µM with T-cell [2] is greater than 7.5; in the assay with T-cell [3], 1.31 to 1.5; with T-cell [5], greater than 0.201; with T-cell [6], greater than 1.
Consider `C[C@@H]1CN(C)CCN1c1cc2c(c(C(F)(F)F)c1)CN(c1cccc(C3(Cc4nncn4C)COC3)c1)C2=O` [Compound 390, (R)-6-(2,4-Dimethylpiperazin-1-yl)-2-(3-(3-((4-methyl-4H-1,2,4-triazol-3-yl)methyl)oxetan-3-yl)phenyl)-4-(trifluoromethyl)isoindolin-1-one], for which the results for the concentration for half-maximal inhibition (IC50) on Cbl-b [1] and on Cbl-b [4] were no more than 100 nM and less than 100 nM, respectively. In addition, the fold induction at 0.3 µM in the assay on T-cell [2] lay in the range of 2.51 to 5; with T-cell [3], 1.01 to 1.3. Moreover, the fold induction at 1 µM was greater than 7.5 in the assay on T-cell [2], 1.31 to 1.5 with T-cell [3], 0.151 to 0.2 in the assay with T-cell [5] and greater than 1 with T-cell [6].
`CN1CCN(c2cc3c(c(C(F)(F)F)c2)CN(c2cccc(C4(Cc5nncn5C)COC4)c2)C3=O)C(=O)C1` [Compound 391, 6-(4-Methyl-2-oxopiperazin-1-yl)-2-(3-(3-((4-methyl-4H-1,2,4-triazol-3-yl)methyl)oxetan-3-yl)phenyl)-4-(trifluoromethyl)isoindolin-1-one]: the IC50 at Cbl-b [1] is no more than 100 nM; at Cbl-b [4] it was less than 100 nM. In addition, the fold induction at 0.3 µM was 1.01 to 2.5 in the assay with T-cell [2] and 1.01 to 1.3 in the assay with T-cell [3]. For the same molecule, the fold induction at 1 µM was in the range of 1.01 to 2.5 with T-cell [2], 1.01 to 1.3 in the assay with T-cell [3], 0.051 to 0.1 in the assay on T-cell [5] and 0.801 to 1 with T-cell [6].
For the molecule `C[C@H](Cc1nncn1C)c1cccc(N2Cc3c(cc([C@H](C)N4CC[C@H](F)C4)cc3C(F)(F)F)C2=O)c1` [Compound 404, 6-((S)-1-((S)-3-fluoropyrrolidin-1-yl)ethyl)-2-(3-((R)-1-(4-methyl-4H-1,2,4-triazol-3-yl)propan-2-yl)phenyl)-4-(trifluoromethyl)isoindolin-1-one], the results for the half-maximal inhibitory concentration (IC50) at Cbl-b [1] and on Cbl-b [4] were no more than 100 nM and less than 100 nM, respectively. Besides, the figures for the fold induction at 0.3 µM with T-cell [2] and in the assay on T-cell [3] were greater than 7.5 and 1.31 to 1.5, respectively. Moreover, the fold induction at 1 µM in the assay with T-cell [2] was greater than 7.5; with T-cell [3] it was 1.31 to 1.5; in the assay with T-cell [5], greater than 0.201; in the assay on T-cell [6], greater than 1. The results for the fold induction at 4 µM in the assay on T-cell [2] and with T-cell [3] were greater than 7.5 and 1.31 to 1.5, respectively. Further, the fold induction at 8 µM in the assay with T-cell [5] was greater than 0.201; in the assay with T-cell [6], greater than 1.
As for `C[C@H](Cc1nncn1C)c1cccc(N2Cc3c(cc([C@@H](C)N4CC(O)C4)cc3C(F)(F)F)C2=O)c1` [Compound 405, 6-((R)-1-(3-hydroxyazetidin-1-yl)ethyl)-2-(3-((R)-1-(4-methyl-4H-1,2,4-triazol-3-yl)propan-2-yl)phenyl)-4-(trifluoromethyl)isoindolin-1-one], the half-inhibitory concentration (IC50) on Cbl-b [1] is no more than 100 nM; on Cbl-b [4] it was less than 100 nM. Besides, the figures for the fold induction at 0.3 µM with T-cell [2] and in the assay on T-cell [3] were 2.51 to 5 and 1.01 to 1.3, respectively. For the same molecule, the fold induction at 1 µM in the assay with T-cell [2] is 5 to 7.5; in the assay with T-cell [3] it was 1.31 to 1.5; in the assay on T-cell [5], greater than 0.201; in the assay with T-cell [6] it was 0.801 to 1. The results for the fold induction at 4 µM in the assay on T-cell [2] and in the assay with T-cell [3] were greater than 7.5 and 1.31 to 1.5, respectively. Besides, the fold induction at 8 µM is greater than 0.201 in the assay with T-cell [5] and greater than 1 in the assay with T-cell [6].
As to `C[C@H](Cc1nncn1C)c1cccc(N2Cc3c(cc([C@H](C)N4CC(O)C4)cc3C(F)(F)F)C2=O)c1` [Compound 406, 6-((S)-1-(3-hydroxyazetidin-1-yl)ethyl)-2-(3-((R)-1-(4-methyl-4H-1,2,4-triazol-3-yl)propan-2-yl)phenyl)-4-(trifluoromethyl)isoindolin-1-one], the IC50 at Cbl-b [1] is no more than 100 nM; at Cbl-b [4], less than 100 nM. The fold induction at 0.3 µM lay within 5 to 7.5 in the assay on T-cell [2] and 1.01 to 1.3 with T-cell [3]. Also, the fold induction at 1 µM was greater than 7.5 in the assay with T-cell [2], 1.31 to 1.5 with T-cell [3], greater than 0.201 in the assay on T-cell [5] and greater than 1 in the assay on T-cell [6]. The fold induction at 4 µM in the assay on T-cell [2] is greater than 7.5; with T-cell [3] it was 1.31 to 1.5. Further, the fold induction at 8 µM was greater than 0.201 in the assay with T-cell [5] and greater than 1 in the assay with T-cell [6].

For the origin of these results see patent US20220324835A1 (Nurix Therapeutics, Inc., priority 2018, published 2022).
